# Reference: patent publication US9938230B2, “Esters or salts of 2-hydroxy-4-propylcyclohepta-2,4,6-trienone and application thereof in preparation of animal antibacterial agents and growth promoters used in feed” (GUANGZHOU INSIGHTER BIOTECHNOLOGY CO., LTD., priority 2014, dated 2018)
# Columns and labels:
# [1] = Thermal stability test of different metal salts, 2% premix with corncob powder at 100° C., HPLC; assay type: physicochemical; details: for Residual content at 100° C. for 20 h (%) / Residual content at 100° C. for 40 h (%): 2% premix; for Initial content (%): 2% premix with corncob powder, before heating; for Residual content at 100° C. for 20 h (%) / Residual content at 100° C. for 40 h (%) / thermal stability (in words): 100° C.; for thermal stability (in words): compared with IST-009-001
# Method: (§1) Each of the metal salts of 2-hydroxy-4-propylcyclohepta-2,4,6-trienone prepared in Embodiments 2-6 was mixed with corncob powder to obtain a premix with a mass fraction of 2%. Samples (the premix) were placed in crucibles and spread, and then placed in oven at 100° C. for different durations. Then 1.0 g of each of the samples (three duplicate samples from each sample) and 50 ml of ethanol were added into a conical flask, subjected to sonication for 10 min, and then filtrated through filter paper. The filtrate was transferred into a 50 ml volumetric flask, topped up to the final volume with ethanol, and then filtered with a 0.45 μm microporous membrane and subjected to HPLC analysis.
# (§2) Chromatographic Parameters
# (§3) Column: Wondasil C18 (250 mm×4.6 mm, 5 μm);
# Mobile phase: methanol/40 mM ammonium acetate (65:35, v/v; pH 4):
# (§4) Detection Wavelength: 220 nm;
# (§5) Column Temperature: 25° C.;
# (§6) Flow Rate: 0.8 or 1.0 ml/min.
# [2] = Optical stability test of different metal salts, 2% premix, illumination at 4500-5000 lux for 5 days, HPLC; assay type: physicochemical; details: for Residual content of 5 days later (%): 2% premix; for Initial content (%): 2% premix with corncob powder, before illumination
# Method: Samples (the premixes) were spread in a stability test chamber and subjected to illumination at 4500-5000 lux for 5 days. Then 1.0 g of each of the samples (three duplicate samples from each sample) and 50 ml of ethanol were added into a conical flask, subjected to sonication for 10 min, and then filtrated through filter paper. The filtrate was transferred into a 50 ml volumetric flask, topped up to the final volume with ethanol, and then filtered with a 0.45 μm microporous membrane and subjected to HPLC analysis. Column: WondasilC18 (250 mm×4.6 mm, 5 μm); Mobile Phase: methanol/40 mM ammonium acetate (65:35, v/v; pH 4): Detection Wavelength: 220 nm; Column Temperature: 25° C.; […] Flow Rate: 0.8 or 1.0 ml/min.
# [3] = Thermal stability test of 7-oxo-3-propylcyclohepta-1,3,5-trien-1-yl stearate, 2% premix with corncob powder in oven, HPLC; assay type: physicochemical
# Method: as §1, with “The” for “Each of the metal salts of 2-hydroxy-4-propylcyclohepta-2,4,6-trienone”, “7-oxo-3-propylcyclohepta-1,3,5-trien-1-yl stearate (IST-009-050)” for “in Embodiments 2-6”, “60°” for “100°”, “C. or eat” for “C.”
# as §2, §3
# Mobile Phase: acetonitrile (100%);
# as §4, §5, §6
# [4] = system: yellow feather broilers (female); experiment: Application in broiler feeds, 30 days test period, weight gain and feed conversion; assay type: in vivo; details: for Average daily weight gain / Average weight gain / Feed conversion efficiency / Consumption: 30 days; for Consumption: group of 100 broilers
# From the text: 500 1-day-aged, healthy, fast-grown yellow feather broilers (female) in the same growing state and similar in weight were randomly divided into five groups according to table 4, 100 broilers in each group. Broilers of each group were fed with different dosages of magnesium 7-oxo-3-propylcyclohepta-1,3,5-trienolate or 2-hydroxy-4-propylcyclohepta-2,4,6-trienone.
# [5] = 2.5 ppm mixed with feed, broilers
# [6] = 5.0 ppm mixed with feed, broilers
smiles,measurement,setting,value
"CCCc1cccc(=O)c(O)c1 [Calcium 7-oxo-3-propylcyclohepta-1,3,5-trienolate]",Residual content at 100° C. for 20 h (%),[1],1.73%
same,Residual content at 100° C. for 40 h (%),[1],1.67%
same,Residual content of 5 days later (%),"[2]; 4500-5000 lux, 5 days",0.89%
"CCCc1cccc(=O)c([O-])c1.[K+] [potassium 7-oxo-3-propylcyclohepta-1,3,5-trienolate]",Initial content (%),[1],2.0%
same,Residual content at 100° C. for 20 h (%),[1],1.43%
same,Residual content at 100° C. for 40 h (%),[1],1.13%
same,Initial content (%),[2],2.0%
same,Residual content of 5 days later (%),"[2]; 4500-5000 lux, 5 days",0.17%
"CCCc1cccc(=O)c([O-])c1.[Na+] [sodium 7-oxo-3-propylcyclohepta-1,3,5-trienolate]",Initial content (%),[1],2.0%
same,Residual content at 100° C. for 20 h (%),[1],1.31%
same,Residual content at 100° C. for 40 h (%),[1],1.11%
same,Initial content (%),[2],2.0%
same,Residual content of 5 days later (%),"[2]; 4500-5000 lux, 5 days",0.05%
"CCCCCCCCCCCCCCCCCC(=O)Oc1cc(CCC)cccc1=O [IST-009-050, 7-oxo-3-propylcyclohepta-1,3,5-trien-1-yl stearate]",Content (%),"[3]; 2% premix with corncob powder, before heating (no temperature, no time)",2.0%
same,Content (%),"[3]; 2% premix, 60° C., 22 h",0.84%
same,Content (%),"[3]; 2% premix, 60° C., 44 h",0.35%
same,Content (%),"[3]; 2% premix, 60° C., 68 h",0.14%
same,Content (%),"[3]; 2% premix, 80° C., 22 h",0.61%
same,Content (%),"[3]; 2% premix, 80° C., 44 h",0.03%
same,Content (%),"[3]; 2% premix, 80° C., 68 h",0%
same,thermal stability (in words),[3]; compared with IST-009-001,"better than the unesterified 2-hydroxy-4-propylcyclohepta-2,4,6-trienone (IST-009-001), but not satisfactory yet"
"CCCc1cccc(=O)c(O)c1 [Manganese 7-oxo-3-propylcyclohepta-1,3,5-trienolate]",Initial content (%),[1],2.0%
same,Residual content at 100° C. for 20 h (%),[1],1.99%
same,Residual content at 100° C. for 40 h (%),[1],1.98%
same,thermal stability (in words),[1],highest thermal stability
same,Residual content of 5 days later (%),"[2]; 4500-5000 lux, 5 days",1.96%
same,optical stability (in words),"[2]; 4500-5000 lux, 5 days",most significant
"CCCc1cccc(=O)c(O)c1 [Magnesium 7-oxo-3-propylcyclohepta-1,3,5-trienolate]",Average daily weight gain,[4]; [5],26.2 g
same,Average weight gain,[4]; [5],785 g
same,Feed conversion efficiency,[4]; [5],1.984
same,Consumption,[4]; 2.5 ppm mixed with feed,155.94 kg
same,Average daily weight gain,[4]; [6],26.6 g
same,Average weight gain,[4]; [6],798 g
same,Feed conversion efficiency,[4]; [6],1.899
same,Consumption,[4]; 5.0 ppm mixed with feed,151.54 kg
same,feed conversion efficiency (in words),"[4]; broilers, 30 days test period",significantly improved
same,weight gain (in words),"[4]; broilers, 30 days test period",significantly improved
same,Residual content at 100° C. for 40 h (%),[1],1.99%
same,Residual content of 5 days later (%),"[2]; 4500-5000 lux, 5 days",1.52%
"CCCc1cccc(=O)c(O)c1 [IST-009-001, 2-hydroxy-4-propylcyclohepta-2,4,6-trienone]",Average daily weight gain,[4]; [5],26.1 g
same,Average weight gain,[4]; [5],783 g
same,Feed conversion efficiency,[4]; [5],1.988
same,Consumption,[4]; 2.5 ppm mixed with feed,156.66 kg
same,Average daily weight gain,[4]; [6],26.8 g
same,Average weight gain,[4]; [6],804 g
same,Feed conversion efficiency,[4]; [6],1.906
same,Consumption,[4]; 5.0 ppm mixed with feed,153.24 kg
same,Content (%),"[3]; 2% premix, 80° C., 22 h",0%
same,Content (%),"[3]; 2% premix, 80° C., 44 h",0%
same,Content (%),"[3]; 2% premix, 80° C., 68 h",0%
same,Initial content (%),[1],2.0%
same,Residual content at 100° C. for 20 h (%),[1],0%
same,Residual content at 100° C. for 40 h (%),[1],0%
same,Initial content (%),[2],2.0%
same,Residual content of 5 days later (%),"[2]; 4500-5000 lux, 5 days",0%
"CCCc1cccc(=O)c(O)c1 [magnesium 7-oxo-3-propylcyclohepta-1,3,5-trienolate]",thermal stability (in words),[1],highest thermal stability
